Source: ChEMBL document CHEMBL1128887, “3-benzyl-quinolones: Novel, potent inhibitors of mammalian topoisomerase II” (Bioorg Med Chem Lett, 1995)

How the values were obtained:
DNA topoisomerase II = DNA topoisomerase II (Homo sapiens, UniProt P11388+Q02880); experiment: Inhibitory activity against HeLa cell Topoisomerase II; format: cell-based
P388 = experiment: In vitro cytotoxicity against P388 mouse leukemia cells; format: functional, cell-based
Mus musculus [1] = experiment: In vivo antitumor activity was measured as maximum tolerated dose in BDF1 male mice implanted with murine pancreatic adenocarcinoma (Panc 03) at dose schedule qd 4,6,8,10,12,14,16 administered iv; format: functional
Mus musculus [2] = experiment: In vivo antitumor activity was measured as tumor growth inhibition in BDF1 male mice implanted with murine pancreatic adenocarcinoma (Panc 03) at dose schedule qd 4,6,8,10,12,14,16 administered iv; format: functional
Mus musculus [3] = experiment: In vivo antitumor activity was measured as tumor growth inhibition in BDF1 male mice implanted with murine pancreatic adenocarcinoma (Panc 03) at dose schedule qd 3-12 administered sc; format: functional
Mus musculus [4] = experiment: In vivo antitumor activity was measured as maximum tolerated dose in BDF1 male mice implanted with murine pancreatic adenocarcinoma (Panc 03) at dose schedule qd 3-12 administered sc; format: functional
Mus musculus [5] = experiment: In vivo antitumor activity was measured as tumor growth inhibition in BDF1 male mice implanted with murine pancreatic adenocarcinoma (Panc 03) at dose schedule qd 3,4,7,10 administered iv; format: functional
Mus musculus [6] = experiment: In vivo antitumor activity was measured as maximum tolerated dose in BDF1 male mice implanted with murine pancreatic adenocarcinoma (Panc 03) at dose schedule qd 3,4,7,10 administered iv; format: functional
Mus musculus [7] = experiment: In vivo antitumor activity was measured as maximum tolerated dose in BDF1 male mice implanted with murine pancreatic adenocarcinoma (Panc 03) at dose schedule qd 3, bid 4-9; sc bid 10,11 administered iv; format: functional
Mus musculus [8] = experiment: In vivo antitumor activity was measured as tumor growth inhibition in BDF1 male mice implanted with murine pancreatic adenocarcinoma (Panc 03) at dose schedule qd 3, bid 4-9; sc bid 10,11 administered iv; format: functional
Mus musculus [9] = experiment: In vivo antitumor activity was measured as maximum tolerated dose in BDF1 male mice implanted with murine pancreatic adenocarcinoma (Panc 03) at dose schedule qd 4-11 administered iv; format: functional
Nucleic Acid = experiment: Compound was evaluated for its activity against bacterial DNA gyrase; format: nucleic-acid assay, Bacteria
Mus musculus [10] = experiment: In vivo antitumor activity was measured as tumor growth inhibition in BDF1 male mice implanted with murine pancreatic adenocarcinoma (Panc 03) at dose schedule qd 4-11 administered iv; format: functional
Mus musculus [11] = experiment: In vivo antitumor activity was measured as maximum tolerated dose in BDF1 male mice implanted with murine pancreatic adenocarcinoma (Panc 03) at dose schedule qd 4-9 administered sc; format: functional
Mus musculus [12] = experiment: In vivo antitumor activity was measured as tumor growth inhibition in BDF1 male mice implanted with murine pancreatic adenocarcinoma (Panc 03) at dose schedule qd 4-9 administered sc; format: functional
Mus musculus [13] = experiment: In vivo antitumor activity was measured as tumor growth inhibition in BDF1 male mice implanted with murine pancreatic adenocarcinoma (Panc 03) at dose schedule qd 3-11 administered iv; format: functional
Mus musculus [14] = experiment: In vivo antitumor activity was measured as maximum tolerated dose in BDF1 male mice implanted with murine pancreatic adenocarcinoma (Panc 03) at dose schedule qd 3-11 administered iv; format: functional
Mus musculus [15] = experiment: In vivo antitumor activity was measured as maximum tolerated dose in BDF1 male mice implanted with murine pancreatic adenocarcinoma (Panc 03) at dose schedule qd 3-9 administered sc; format: functional
Mus musculus [16] = experiment: In vivo antitumor activity was measured as tumor growth inhibition in BDF1 male mice implanted with murine pancreatic adenocarcinoma (Panc 03) at dose schedule qd 3-9 administered sc; format: functional

Structure (SMILES)	EC50 (DNA topoisomerase II)	IC50 (P388)	further results
Cc1cc(-c2c(F)cc3c(=O)c(CC4CCCCC4)cn(C4CC4)c3c2F)cc(C)n1	> 230 µM	–	–
CC(=O)Nc1ccc(Cc2cn(C3CC3)c3c(F)c(-c4cc(C)nc(C)c4)c(F)cc3c2=O)cc1	> 100 µM	–	–
COc1ccccc1Cc1cn(C2CC2)c2c(F)c(-c3cc(C)nc(C)c3)c(F)cc2c1=O	14 µM	37000 nM	–
Cc1cc(-c2c(F)cc3c(=O)c(Cc4ccc[nH]4)cn(C4CC4)c3c2F)cc(C)n1	5.1 µM	930 nM	–
Cc1cc(-c2c(F)cc3c(=O)c(Cc4ccccn4)cn(C4CC4)c3c2F)cc(C)n1	12 µM	–	–
Cc1cc(-c2c(F)cc3c(=O)c(Cc4ccncc4)cn(C4CC4)c3c2F)cc(C)n1	9.1 µM	–	–
Cc1cc(-c2c(F)cc3c(=O)c(Cc4ccc(N)cc4)cn(C4CC4)c3c2F)cc(C)n1	7.2 µM	–	–
Cc1cc(-c2c(F)cc3c(=O)c(Cc4ccc(O)cc4)cn(C4CC4)c3c2F)cc(C)n1	1.2 µM	1500 nM	–
Cc1cc(-c2c(F)cc3c(=O)c(Cc4ccccc4NS(C)(=O)=O)cn(C4CC4)c3c2F)cc(C)n1	3.3 µM	–	–
Cc1cc(-c2c(F)cc3c(=O)c(Cc4c[nH]cn4)cn(C4CC4)c3c2F)cc(C)n1	1.6 µM	390 nM	–
Cc1cc(-c2c(F)cc3c(=O)c(Cc4ccccc4C(=O)O)cn(C4CC4)c3c2F)cc(C)n1	200 µM	–	–
COc1cc([C@@H]2c3cc4c(cc3[C@@H](O[C@@H]3O[C@@H]5CO[C@@H](C)O[C@H]5[C@H](O)[C@H]3O)[C@H]3COC(=O)[C@H]23)OCO4)cc(OC)c1O [ETOPOSIDE]	–	–	MTD (Mus musculus [1]): 96 mg/kg; T/C (Mus musculus [2]): 3%
Cc1cc(-c2c(F)cc3c(=O)c(Cc4ccc(Cl)cc4)cn(C4CC4)c3c2F)cc(C)n1	7.7 µM	20000 nM	–
Cc1cc(-c2c(F)cc3c(=O)c(Cc4cccc5ccccc45)cn(C4CC4)c3c2F)cc(C)n1	> 210 µM	–	–
Cc1cc(-c2c(F)cc3c(=O)c(Cc4ccccc4)cn(C4CC4)c3c2F)cc(C)n1	3.9 µM	7300 nM	T/C (Mus musculus [3]): >100%; MTD (Mus musculus [4]): 3749 mg/kg
Cc1cc(-c2c(F)cc3c(=O)c(Cc4ccc(O)cc4O)cn(C4CC4)c3c2F)cc(C)n1	0.16 µM	210 nM	T/C (Mus musculus [5]): 73%; MTD (Mus musculus [6]): 20 mg/kg
Cc1cc(-c2c(F)cc3c(=O)c(Cc4ccc(N(C)C)cc4)cn(C4CC4)c3c2F)cc(C)n1	> 210 µM	–	–

Structure (SMILES)	EC50 (DNA topoisomerase II)	IC50 (P388)	further results
CC(=O)Nc1ccccc1Cc1cn(C2CC2)c2c(F)c(-c3cc(C)nc(C)c3)c(F)cc2c1=O	5.1 µM	–	–
Cc1cc(-c2c(F)cc3c(=O)c(Cc4ncc[nH]4)cn(C4CC4)c3c2F)cc(C)n1	1.1 µM	1100 nM	MTD (Mus musculus [7]): 88 mg/kg; T/C (Mus musculus [8]): 21%
Cc1cc(-c2c(F)cc3c(=O)c(Cc4c(O)cccc4O)cn(C4CC4)c3c2F)cc(C)n1	0.096 µM	250 nM	MTD (Mus musculus [9]): 12 mg/kg; EC50 (Nucleic Acid): 140 nM; T/C (Mus musculus [10]): 0%
Cc1cc(-c2c(F)cc3c(=O)c(Cc4cccc(O)c4)cn(C4CC4)c3c2F)cc(C)n1	1.1 µM	2200 nM	–
COc1cccc(Cc2cn(C3CC3)c3c(F)c(-c4cc(C)nc(C)c4)c(F)cc3c2=O)c1	14 µM	20000 nM	–
Cc1cc(-c2c(F)cc3c(=O)c(Cc4cc(O)ccc4O)cn(C4CC4)c3c2F)cc(C)n1	0.16 µM	360 nM	–
COc1cc(NS(C)(=O)=O)ccc1Nc1c2ccccc2nc2ccccc12 [AMSACRINE]	–	–	MTD (Mus musculus [11]): 48 mg/kg; T/C (Mus musculus [12]): 0%
Cc1cc(-c2c(F)cc3c(=O)c(Cc4cccc(O)c4O)cn(C4CC4)c3c2F)cc(C)n1	0.36 µM	880 nM	–
Cc1cc(-c2c(F)cc3c(=O)c(Cc4ccccc4O)cn(C4CC4)c3c2F)cc(C)n1	0.33 µM	670 nM	T/C (Mus musculus [13]): 5%; MTD (Mus musculus [14]): 225 mg/kg
Cc1cc(-c2c(F)cc3c(=O)c(CCc4ccccc4)cn(C4CC4)c3c2F)cc(C)n1	> 120 µM	–	–
Cc1cc(-c2c(F)cc3c(=O)c(Cc4ccccc4N)cn(C4CC4)c3c2F)cc(C)n1	2.1 µM	2100 nM	–
Cc1cc(-c2c(F)cc3c(=O)c(Cc4ccccc4NC(=O)C(F)(F)F)cn(C4CC4)c3c2F)cc(C)n1	4.7 µM	–	–
Cc1cc(-c2c(F)cc3c(=O)c(C(=O)O)cn(C4CC4)c3c2F)cc(C)n1 [WIN-57294]	–	–	T/C (Mus musculus [3]): 31%; MTD (Mus musculus [4]): 600 mg/kg
Cc1cc(-c2c(F)cc3c(=O)c(-c4ccccc4)cn(C4CC4)c3c2F)cc(C)n1	> 120 µM	–	–
Cc1cc(-c2c(F)cc3c(=O)c(Cc4c(O)cc(O)cc4O)cn(C4CC4)c3c2F)cc(C)n1	0.098 µM	470 nM	–
COc1ccc(Cc2cn(C3CC3)c3c(F)c(-c4cc(C)nc(C)c4)c(F)cc3c2=O)cc1	14 µM	21000 nM	–
Cc1cc(-c2c(F)cc3c(=O)ccn(C4CC4)c3c2F)cc(C)n1	–	–	MTD (Mus musculus [15]): 2410 mg/kg; T/C (Mus musculus [16]): >100%
